Patent publication US20230265056A1, “CRYSTALLINE FORMS OF BENZAMIDE COMPOUND AND PROCESS FOR PREPARING THE SAME” (CRYSTAL PHARMATECH CO., LTD., priority 2020, published 2023)
≈ marks a conversion by molar mass, not a printed value.

Legend:
[1] = Kinetic solubility in SGF, FaSSIF, FeSSIF and pure water (HPLC); conditions: for solubility kinetic at 1 h / solubility kinetic at 4 h / solubility kinetic at 24 h: thermodynamic from solid
Experimental: (§1) Suspend Form J (from example 1), amorphous (from example 2) and Form A (from WO2020234779A1) in Simulated Gastric Fluid (SGF), Fasted-State Simulated Intestinal Fluid (FaSSIF), Fed-State Simulated Intestinal Fluid (FeSSIF) and pure water, respectively. After equilibrium for 1 hour, 8 hours and 24 hours, filter the solution for HPLC test.

[2] = Hygroscopicity by DVS test, with XRPD before and after; assay type: physicochemical; conditions: for Water uptake at 25° C., 80% / Water uptake at 25° C., 90%: DVS; for Water uptake at 25° C., 80%: 80% relative humidity; for Water uptake at 25° C., 90%: 90% relative humidity
Experimental: The dynamic vapor sorption diagrams of the present disclosure were collected on Intrinsic-type and Intrinsic Plus-type dynamic vapor sorption instruments of SMS company. The process parameters of the dynamic vapor sorption test of the present disclosure were as follows:
Protection gas and its flow rate: N2, 200 mL/minute
Minimum dm/dt equilibration time: 10 minutes
Maximum Equilibration Time: 180 minutes
Relative humidity range: 0% RH-95% RH-0% RH, 50% RH-95% RH-0% RH
Relative humidity gradient: 10% (0% RH-90% RH-0% RH), 5% (90% RH-95% RH and 95% RH-90% RH).
Weigh approximately 10 mg of a form of formula (I) (i.e., Form A from WO2020234779A1), 10 mg of Form J and 10 mg of amorphous for DVS test, and then collect the obtained solid for XRPD analysis. The DVS plots of Form A, Form J and amorphous were shown in FIGS. 6, 8 and 10, and the XRPD overlay were shown in
Following is Description and definition of hygroscopicity (see appendix XIX J, guidance for hygroscopicity evaluation of Pharmacopoeia of the People's Republic of China 2010): […]

[3] = Intrinsic dissolution of compressed thin tablet; assay type: physicochemical; conditions: pH 1.5 aqueous HCl solution
Experimental: Approximately 100 mg of each of Form J (from example 1) and Form A (from WO2020234779A1) were compressed by intrinsic dissolution mold under 10 kN pressure to obtain a thin tablet with surface area of 1.0 cm2, respectively. Dissolution experiment was performed on the tablets, and the corresponding result was summarized in Table 4, dissolution profile was shown in FIG. 16.

[4] = would covert to Form A under certain conditions; cited from earlier work
PSD test = assay type: physicochemical; conditions: Isopar G (0.2% lecithin), before and after sonication for 30 s, compared with Form A
Experimental: Approximately 10-30 mg of each of Form J (from example 1) and Form A (from WO2020234779A1) were added into 5 mL Isopar G (0.2% lecithin) to form a suspension, respectively. The suspension was loaded into SDC system for data collection, which was collected before and after sonication for 30 s.

physchem = conditions: thermodynamic from solid
Experimental: as §1

[5] = Sticking propensity (powder adhering to punch tip); assay type: physicochemical; conditions: 6 mm circle punches, 10 kN pressure, compared with Form A
Experimental: Approximately 30 mg of each of Form J (from example 1) and Form A (from WO2020234779A1) were compressed by 6 mm circle punches under 10 kN pressure, respectively. The loading mass (ML) and tablet mass (MT) were recorded, and mass percentage of powder adhering to punch tip (ma) was calculated by the equation of ma=(ML−MT)/ML×100%.

Crystal habit by PLM = assay type: physicochemical; conditions: compared with Form A
Experimental: About 10 mg of Form J (from example 1) and Form A (from WO2020234779A1) were weighed and placed onto a glass slide, respectively, the solid were dispersed with several vacuum pump oil, and then covered with a cover glass. The samples were observed using PLM.

[6] = Solid-state stability (XRPD and HPLC purity); assay type: physicochemical; conditions: for Purity: HPLC; for Solid form: XRPD
Experimental: Weigh appropriate amount of Form J (from example 1) into a 5-mL glass vial, and then seal the vial with parafilm (pricked 5 pinholes). Place the vial under 25° C./60% RH and 40° C./75% RH for some time, and then separate several solids out for XRPD and HPLC purity test.

## C=CC(=O)N(C)CCOc1c(N)ncnc1-c1cc(F)cc(NC(=O)c2ccc(C3CC3)cc2F)c1C [Amorphous, N-(3-(6-amino-5-(2-(N-methylacrylamido)ethoxy)pyrimidin-4-yl)-5-fluoro-2-methylphenyl)-4-cyclopropyl-2-fluorobenzamide]
[1]; FaSSIF, 24 hr
  Kinetic solubility: 11 µg/mL
[1]; Fasted-State Simulated Intestinal Fluid (FaSSIF), fassif, 1 hr
  solubility kinetic at 1 h: 10 µg/mL (≈ 19.7 µM)
[1]; Fasted-State Simulated Intestinal Fluid (FaSSIF), fassif, 4 hr
  solubility kinetic at 4 h: 11 µg/mL (≈ 21.7 µM)
[1]; Fed-State Simulated Intestinal Fluid (FeSSIF), fessif, 1 hr
  solubility kinetic at 1 h: 33 µg/mL (≈ 65 µM)
[1]; Fed-State Simulated Intestinal Fluid (FeSSIF), fessif, 4 hr
  solubility kinetic at 4 h: 34 µg/mL (≈ 67 µM)
[1]; Fed-State Simulated Intestinal Fluid (FeSSIF), fessif, 24 hr
  solubility kinetic at 24 h: 33 µg/mL (≈ 65 µM)
[1]; SGF, 1 hr
  Kinetic solubility: 1400 µg/mL
[1]; Simulated Gastric Fluid (SGF), simulated gastric fluid, SGF, 4 hr
  solubility kinetic at 4 h: 1000 µg/mL (≈ 1970 µM)
[1]; Simulated Gastric Fluid (SGF), simulated gastric fluid, SGF, 24 hr
  solubility kinetic at 24 h: 950 µg/mL (≈ 1870 µM)
[1]; pure water, water, H2O, 1 hr
  solubility kinetic at 1 h: 4.6 µg/mL (≈ 9.06 µM)
[1]; pure water, water, H2O, 4 hr
  solubility kinetic at 4 h: 4.4 µg/mL (≈ 8.67 µM)
[1]; pure water, water, H2O, 24 hr
  solubility kinetic at 24 h: 4.3 µg/mL (≈ 8.47 µM)
[2]
  Water uptake at 25° C., 80%: 3.37%
  Water uptake at 25° C., 90%: 4.14%
[2]; class per Pharmacopoeia of the People's Republic of China 2010
  Hygroscopicity: Hygroscopic (increase in mass is less than 15 percent and equal to or greater than 2 percent)

## C=CC(=O)N(C)CCOc1c(N)ncnc1-c1cc(F)cc(NC(=O)c2ccc(C3CC3)cc2F)c1C [Form A, N-(3-(6-amino-5-(2-(N-methylacrylamido)ethoxy)pyrimidin-4-yl)-5-fluoro-2-methylphenyl)-4-cyclopropyl-2-fluorobenzamide, reference compound]
[1]; FaSSIF, 1 hr
  Kinetic solubility: 6.1 µg/mL
[1]; FaSSIF, 4 hr
  Kinetic solubility: 6.5 µg/mL
[1]; FaSSIF, 24 hr
  Kinetic solubility: 5 µg/mL
[1]; FeSSIF, 1 hr
  Kinetic solubility: 20 µg/mL
[1]; FeSSIF, 4 hr
  Kinetic solubility: 22 µg/mL
[1]; FeSSIF, 24 hr
  Kinetic solubility: 22 µg/mL
[1]; H2O, 1 hr
  Kinetic solubility: 3.7 µg/mL
[1]; H2O, 4 hr
  Kinetic solubility: 3.9 µg/mL
[1]; H2O, 24 hr
  Kinetic solubility: 2.9 µg/mL
[1]; SGF, 1 hr
  Kinetic solubility: 690 µg/mL
[1]; SGF, 4 hr
  Kinetic solubility: 710 µg/mL
[1]; SGF, 24 hr
  Kinetic solubility: 700 µg/mL
[2]
  Water uptake at 25° C., 80%: 0.54%
  Water uptake at 25° C., 90%: 0.68%
[3]; 5 mins
  Cumulative dissolution amount: 0.5 mg
[3]; 10 mins
  Cumulative dissolution amount: 0.9 mg
[3]; 15 mins
  Cumulative dissolution amount: 1.3 mg
[3]; 20 mins
  Cumulative dissolution amount: 1.6 mg
[3]; 25 mins
  Cumulative dissolution amount: 2.1 mg
[3]; 30 mins
  Cumulative dissolution amount: 2.7 mg
[3]; 60 mins
  Cumulative dissolution amount: 3.2 mg
[3]; 75 mins
  Cumulative dissolution amount: 4.3 mg

## C=CC(=O)N(C)CCOc1c(N)ncnc1-c1cc(F)cc(NC(=O)c2ccc(C3CC3)cc2F)c1C [Form B, N-(3-(6-amino-5-(2-(N-methylacrylamido)ethoxy)pyrimidin-4-yl)-5-fluoro-2-methylphenyl)-4-cyclopropyl-2-fluorobenzamide]
[4]
  Thermodynamic stability: less thermodynamically stable

## C=CC(=O)N(C)CCOc1c(N)ncnc1-c1cc(F)cc(NC(=O)c2ccc(C3CC3)cc2F)c1C [Form J, N-(3-(6-amino-5-(2-(N-methylacrylamido)ethoxy)pyrimidin-4-yl)-5-fluoro-2-methylphenyl)-4-cyclopropyl-2-fluorobenzamide]
PSD test
  Particle size distribution: more uniform particle size distribution than Form A
[2]
  Water uptake at 25° C., 80%: 0.53%
  Water uptake at 25° C., 90%: 0.60%
physchem; fassif
  solubility kinetic at 1 h: 24 µg/mL (≈ 47.3 µM)
  solubility kinetic at 4 h: 14 µg/mL (≈ 27.6 µM)
  solubility kinetic at 24 h: 16 µg/mL (≈ 31.5 µM)
physchem; fessif
  solubility kinetic at 1 h: 130 µg/mL (≈ 256 µM)
  solubility kinetic at 4 h: 53 µg/mL (≈ 104 µM)
  solubility kinetic at 24 h: 57 µg/mL (≈ 112 µM)
physchem; simulated gastric fluid
  solubility kinetic at 1 h: 2400 µg/mL (≈ 4730 µM)
  solubility kinetic at 4 h: 2700 µg/mL (≈ 5320 µM)
  solubility kinetic at 24 h: 2600 µg/mL (≈ 5120 µM)
physchem; water
  solubility kinetic at 1 h: 12 µg/mL (≈ 23.6 µM)
  solubility kinetic at 4 h: 15 µg/mL (≈ 29.6 µM)
  solubility kinetic at 24 h: 19 µg/mL (≈ 37.4 µM)
[5]
  Sticking propensity: lower sticking propensity than Form A
[3]
  Dissolution compared with Form A: larger total dissolution amount and higher cumulative dissolution rate than Form A
[3]; 5 mins
  Cumulative dissolution amount: 1.1 mg
[3]; 10 mins
  Cumulative dissolution amount: 2.5 mg
[3]; 15 mins
  Cumulative dissolution amount: 2.9 mg
[3]; 20 mins
  Cumulative dissolution amount: 3.3 mg
[3]; 25 mins
  Cumulative dissolution amount: 3.9 mg
[3]; 30 mins
  Cumulative dissolution amount: 4.7 mg
[3]; 60 mins
  Cumulative dissolution amount: 5.6 mg
[3]; 75 mins
  Cumulative dissolution amount: 7.2 mg
Crystal habit by PLM
  Crystal habit: better crystal habit than Form A
[6]; 25° C./60% RH and 40° C./75% RH for 8 weeks
  Form change and HPLC purity decrease on storage: no obvious form change and HPLC purity decrease
[6]; 25° C./60% RH, 1 week
  Purity/initial Purity: 99.6%
  Purity: 99.09 area %
  Solid form: Form J
[6]; 25° C./60% RH, 2 weeks
  Purity/initial Purity: 99.0%
  Purity: 98.48 area %
  Solid form: Form J
[6]; 25° C./60% RH, 4 weeks
  Purity/initial Purity: 99.2%
  Purity: 98.71 area %
  Solid form: Form J
[6]; 25° C./60% RH, 8 weeks
  Purity/initial Purity: 98.7%
  Purity: 97.94 area %
  Solid form: Form J
[6]; 40° C./75% RH, 1 week
  Purity/initial Purity: 99.6%
  Purity: 99.05 area %
  Solid form: Form J
[6]; 40° C./75% RH, 2 weeks
  Purity/initial Purity: 98.9%
  Purity: 98.39 area %
  Solid form: Form J
[6]; 40° C./75% RH, 4 weeks
  Purity/initial Purity: 99.0%
  Purity: 98.42 area %
  Solid form: Form J
[6]; 40° C./75% RH, 8 weeks
  Purity/initial Purity: 98.0%
  Purity: 97.32 area %
  Solid form: Form J
